Reference: patent US10760110B2, “Antibiotic testing and screening system” (priority 2017, dated 2020)
Values after ≈ are worked out from the molar mass of the structure shown. Like-named read-outs stand apart in the source and are kept apart here.

Experiments:
[1] = system: A. baumannii KW1 strains with β-lactamase plasmids; test: Etest MIC of β-lactams, extended-spectrum β-lactamase, AmpC β-lactamase or carbapenemase (Table 18); type: cell-based, Acinetobacter baumannii
Description: DNA fragments of the resistance genes along with their flanking regions were amplified from clinical plasmids via PCR with specific primer pairs. The resulting PCR fragments were digested and then cloned into the plasmid pYMAb5 or pYMAb5Tc. The resulting plasmids were then transformed into A. baumannii KW1 via electroporation.
(§1) The MICs of antibiotics were determined using the Etest (Biodisk AB, Sweden) according to the manufacturer's instructions. The MICs from the Etest, which fall between standard two-fold dilutions, were rounded up to the next highest two-fold value. The MICs of ceftazidime and cefotaxime against K. pneumoniae NVT1001 harbouring the pACYC177 plasmid with blaOXA-48 were further determined using a broth microdilution test according to the recommendations of the CLSI,^25 and the results were interpreted according to the breakpoints established by the CLSI in 2017.^25 Meanwhile, due to the lack of CLSI breakpoints in 2016 and 2017, the results for cephalothin were interpreted according to the breakpoints established by the CLSI in 2015,^26 and the results for moxifloxacin were interpreted according to the breakpoints established by the EUCAST in 2017.^27

[2] = system: K. pneumoniae NVT1001 strains with Sul/Dfr plasmids; test: Etest MIC of folate pathway inhibitors, OmpK35/36 loss, ΔramR and/or drug-resistant target enzyme (Table 15); type: cell-based, Klebsiella pneumoniae; details: for MIC: Klebsiella pneumoniae
Description: DNA fragments of the resistance genes along with their flanking regions were amplified from clinical plasmids via PCR with specific primer pairs. The resulting PCR fragments were digested and then cloned into the plasmid pACYC177 or pACYC184. The resulting plasmids were then transformed into K. pneumoniae strain NVT1001 via electroporation. The recombinant bacteria were plated onto LB agar plates containing kanamycin (50 mg/L) or chloramphenicol (50 mg/L), and the presence of the cloned gene was confirmed via PCR and DNA sequencing.
as §1

[3] = system: K. pneumoniae NVT1001 ΔramRΔompK35/36 mutant and its revertants; test: Etest MIC, ΔramRΔompK35/36 mutant and its revertants (Table 7); type: cell-based; details: Klebsiella pneumoniae
From the text: The allelic-exchange method was used to restore the wild-type gene in the K. pneumoniae NVT1001 mutants with constructed chromosome-mediated resistance mechanisms, as described by Tsai et al.^19 Briefly, a DNA fragment of the entire wild-type gene sequence along with flanking regions was amplified from K. pneumoniae NVT1001 using PCR with specific primers. The resulting PCR fragment was digested and then cloned into pUT-KB. For homologous recombination, this plasmid was transformed into E. coli S17-1 λpir^23 via electroporation and mobilized into the K. pneumoniae NVT1001 mutant via conjugation. […] After incubation in 20 mL BHI broth for 6 hours at 37° C. in the absence of kanamycin, the fully grown cultures were spread onto LB agar plates supplemented with 10% sucrose. After the double crossover occurred, the sucrose-resistant and kanamycin-susceptible colonies were selected, and the restoration of the wild-type gene was confirmed via DNA sequencing.
as §1

[4] = system: K. pneumoniae NVT1001 and its ΔompK35/36 and/or ΔramR mutants; test: Etest MIC, OmpK35/36 loss and AcrAB-TolC overexpression (ΔramR) strains (Table 6); type: cell-based, Klebsiella pneumoniae; details: Klebsiella pneumoniae
Description: as §1

[5] = DfrA1 on pACYC177, WT (NVT1001), read-out: MIC
[6] = DfrA1 on pACYC177, ΔompK35/36 mutant
[7] = DfrA1 on pACYC177, ΔompK35 mutant
[8] = DfrA1 on pACYC177, ΔompK36 mutant
[9] = DfrA1 on pACYC177, ΔramR mutant
[10] = DfrA1 on pACYC177, ΔramRΔompK35/36 mutant
[11] = DfrA1 on pACYC177, ΔramRΔompK35 mutant
[12] = DfrA1 on pACYC177, ΔramRΔompK36 mutant
[13] = DfrA16 on pACYC177, WT (NVT1001), read-out: MIC
[14] = DfrA16 on pACYC177, ΔompK35/36 mutant
[15] = DfrA16 on pACYC177, ΔompK35 mutant
[16] = DfrA16 on pACYC177, ΔompK36 mutant
[17] = DfrA16 on pACYC177, ΔramR mutant
[18] = DfrA16 on pACYC177, ΔramRΔompK35/36 mutant
[19] = DfrA16 on pACYC177, ΔramRΔompK35 mutant
[20] = DfrA16 on pACYC177, ΔramRΔompK36 mutant
[21] = Sul1 on pACYC177, WT (NVT1001), read-out: MIC
[22] = Sul1 on pACYC177, ΔompK35/36 mutant
[23] = Sul1 on pACYC177, ΔompK35 mutant
[24] = Sul1 on pACYC177, ΔompK36 mutant
[25] = Sul1 on pACYC177, ΔramRΔompK35/36 mutant
[26] = Sul1 on pACYC177, ΔramRΔompK35 mutant
[27] = Sul1 on pACYC177, ΔramRΔompK36 mutant
[28] = Sul2 on pACYC177, WT (NVT1001), read-out: MIC
[29] = Sul2 on pACYC177, ΔompK35/36 mutant
[30] = Sul2 on pACYC177, ΔompK35 mutant
[31] = Sul2 on pACYC177, ΔompK36 mutant
[32] = Sul2 on pACYC177, ΔramRΔompK35/36 mutant
[33] = Sul2 on pACYC177, ΔramRΔompK35 mutant
[34] = Sul2 on pACYC177, ΔramRΔompK36 mutant
[35] = no supplemental plasmid, WT (NVT1001), read-out: MIC
[36] = no supplemental plasmid, ΔompK35/36 mutant
[37] = no supplemental plasmid, ΔompK35 mutant
[38] = no supplemental plasmid, ΔompK36 mutant
[39] = no supplemental plasmid, ΔramR mutant
[40] = no supplemental plasmid, ΔramRΔompK35/36 mutant
[41] = no supplemental plasmid, ΔramRΔompK35 mutant
[42] = no supplemental plasmid, ΔramRΔompK36 mutant
[43] = ΔramRΔompK35/36::ompK35/36 revertant
[44] = ΔramRΔompK35/36::ompK35 revertant
[45] = ΔramRΔompK35/36::ompK36 revertant
[46] = ΔramRΔompK35/36::ramR revertant
[47] = ΔramRΔompK35/36::ramR::ompK35/36 revertant
[48] = ΔramRΔompK35/36::ramR::ompK35 revertant
[49] = ΔramRΔompK35/36::ramR::ompK36 revertant
[50] = ΔramRΔ35/36, ΔramRΔompK35/36 mutant

C[C@@H](O)[C@H]1C(=O)N2C(C(=O)O)=C(S[C@@H]3CN[C@H](C(=O)N(C)C)C3)[C@H](C)[C@H]12 [MP]
MIC ([1]; KW1, no supplemental plasmid): 0.5 µg/mL
MIC ([1]; KW1 with ADC-30 on pYMAb5): 3 µg/mL
MIC ([1]; KW1 with CTX-M-15 on pYMAb5): 2 µg/mL
MIC ([1]; KW1 with IMP-1 on pYMAb5): 12 µg/mL
MIC ([1]; KW1 with NDM-1 on pYMAb5): >32 µg/mL
MIC ([1]; KW1 with OXA-23 on pYMAb5): >32 µg/mL
MIC ([1]; KW1 with OXA-58 on pYMAb5): 6 µg/mL
MIC ([1]; KW1 with OXA-66 on pYMAb5): 8 µg/mL
MIC ([1]; KW1 with OXA-72 on pYMAb5): >32 µg/mL
MIC ([1]; KW1 with VEB-3 on pYMAb5): 0.5 µg/mL
MIC ([1]; KW1 with VIM-1 on pYMAb5): >32 µg/mL
MIC ([1]; KW1 with shuttle vector pYMAb5): 0.5 µg/mL

Cc1cc(NS(=O)(=O)c2ccc(N)cc2)no1 [Sulfamethoxazole]
MIC [2, 5]: 256 µg/mL
MIC [2, 6]: > 1020 µg/mL
MIC [2, 7]: > 1020 µg/mL
MIC [2, 8]: > 1020 µg/mL
MIC [2, 9]: > 1020 µg/mL
MIC [2, 10]: > 1020 µg/mL
MIC [2, 11]: > 1020 µg/mL
MIC [2, 12]: > 1020 µg/mL
MIC [2, 13]: 256 µg/mL
MIC [2, 14]: > 1020 µg/mL
MIC [2, 15]: > 1020 µg/mL
MIC [2, 16]: > 1020 µg/mL
MIC [2, 17]: > 1020 µg/mL
MIC [2, 18]: > 1020 µg/mL
MIC [2, 19]: > 1020 µg/mL
MIC [2, 20]: > 1020 µg/mL
MIC [2, 21]: > 1020 µg/mL
MIC [2, 22]: > 1020 µg/mL
MIC [2, 23]: > 1020 µg/mL
MIC [2, 24]: > 1020 µg/mL
MIC ([2]; Sul1 on pACYC177, ΔramR mutant): > 1020 µg/mL
MIC [2, 25]: > 1020 µg/mL
MIC [2, 26]: > 1020 µg/mL
MIC [2, 27]: > 1020 µg/mL
MIC [2, 28]: > 1020 µg/mL
MIC [2, 29]: > 1020 µg/mL
MIC [2, 30]: > 1020 µg/mL
MIC [2, 31]: > 1020 µg/mL
MIC ([2]; Sul2 on pACYC177, ΔramR mutant): > 1020 µg/mL
MIC [2, 32]: > 1020 µg/mL
MIC [2, 33]: > 1020 µg/mL
MIC [2, 34]: > 1020 µg/mL
MIC [2, 35]: 256 µg/mL
MIC [2, 36]: > 1020 µg/mL
MIC [2, 37]: 256 µg/mL
MIC [2, 38]: > 1020 µg/mL
MIC [2, 39]: > 1020 µg/mL
MIC [2, 40]: > 1020 µg/mL
MIC [2, 41]: > 1020 µg/mL
MIC [2, 42]: > 1020 µg/mL
MIC [3, 43]: > 1020 µg/mL
MIC [3, 44]: > 1020 µg/mL
MIC [3, 45]: > 1020 µg/mL
MIC [3, 46]: > 1020 µg/mL
MIC [3, 47]: 256 µg/mL
MIC [3, 48]: > 1020 µg/mL
MIC [3, 49]: 256 µg/mL
MIC ([3]; ΔramRΔompK35/36 mutant): > 1020 µg/mL
MIC ([4]; WT, NVT1001): 256 µg/mL (≈ 1010 µM)
MIC ([4]; Δ35, ΔompK35 mutant): 256 µg/mL (≈ 1010 µM)
MIC ([4]; Δ35/36, ΔompK35/36 mutant): > 1020 µg/mL
MIC ([4]; Δ36, ΔompK36 mutant): > 1020 µg/mL
MIC ([4]; ΔramR mutant): > 1020 µg/mL
MIC ([4]; ΔramRΔ35, ΔramRΔompK35 mutant): > 1020 µg/mL
MIC [4, 50]: > 1020 µg/mL
MIC ([4]; ΔramRΔ36, ΔramRΔompK36 mutant): > 1020 µg/mL

COc1cc(Cc2cnc(N)nc2N)cc(OC)c1OC [Trimethoprim]
MIC [2, 5]: > 32 µg/mL
MIC [2, 6]: > 32 µg/mL
MIC [2, 7]: > 32 µg/mL
MIC [2, 8]: > 32 µg/mL
MIC [2, 9]: > 32 µg/mL
MIC [2, 10]: > 32 µg/mL
MIC [2, 11]: > 32 µg/mL
MIC [2, 12]: > 32 µg/mL
MIC [2, 13]: > 32 µg/mL
MIC [2, 14]: > 32 µg/mL
MIC [2, 15]: > 32 µg/mL
MIC [2, 16]: > 32 µg/mL
MIC [2, 17]: > 32 µg/mL
MIC [2, 18]: > 32 µg/mL
MIC [2, 19]: > 32 µg/mL
MIC [2, 20]: > 32 µg/mL
MIC [2, 21]: 2 µg/mL
MIC [2, 22]: 4 µg/mL
MIC [2, 23]: 2 µg/mL
MIC [2, 24]: 2 µg/mL
MIC ([2]; Sul1 on pACYC177, ΔramR mutant): 16 µg/mL
MIC [2, 25]: > 32 µg/mL
MIC [2, 26]: 32 µg/mL
MIC [2, 27]: > 32 µg/mL
MIC [2, 28]: 2 µg/mL
MIC [2, 29]: 4 µg/mL
MIC [2, 30]: 4 µg/mL
MIC [2, 31]: 4 µg/mL
MIC ([2]; Sul2 on pACYC177, ΔramR mutant): 16 µg/mL
MIC [2, 32]: > 32 µg/mL
MIC [2, 33]: 32 µg/mL
MIC [2, 34]: 32 µg/mL
MIC [2, 35]: 2 µg/mL
MIC [2, 36]: 2 µg/mL
MIC [2, 37]: 2 µg/mL
MIC [2, 38]: 2 µg/mL
MIC [2, 39]: 8 µg/mL
MIC [2, 40]: > 32 µg/mL
MIC [2, 41]: 8 µg/mL
MIC [2, 42]: 16 µg/mL
effects on the MIC ([2]; strains with porin loss and/or Sul production): no significant (≥4-fold) effects
MIC [3, 43]: 8 µg/mL
MIC [3, 44]: 8 µg/mL
MIC [3, 45]: 8 µg/mL
MIC [3, 46]: 2 µg/mL
MIC [3, 47]: 2 µg/mL
MIC [3, 48]: 2 µg/mL
MIC [3, 49]: 2 µg/mL
MIC ([3]; ΔramRΔompK35/36 mutant): > 32 µg/mL
MIC ([4]; WT, NVT1001, read-out: MIC): 2 µg/mL (≈ 6.89 µM)
MIC ([4]; Δ35, ΔompK35 mutant): 2 µg/mL (≈ 6.89 µM)
MIC ([4]; Δ35/36, ΔompK35/36 mutant): 2 µg/mL (≈ 6.89 µM)
MIC ([4]; Δ36, ΔompK36 mutant): 2 µg/mL (≈ 6.89 µM)
MIC ([4]; ΔramR mutant): 8 µg/mL (≈ 27.6 µM)
MIC ([4]; ΔramRΔ35, ΔramRΔompK35 mutant): 8 µg/mL (≈ 27.6 µM)
MIC [4, 50]: > 32 µg/mL
MIC ([4]; ΔramRΔ36, ΔramRΔompK36 mutant): 16 µg/mL (≈ 55.1 µM)
